In the supplement of paper PMC10307832:

What was measured:
Assay in all cases: relative viability (nuclei count vs DMSO), 5 days (fraction); higher = more cells survive
Imatinib + Bortezomib = compound: Cc1ccc(NC(=O)c2ccc(CN3CCN(C)CC3)cc2)cc1Nc1nccc(-c2cccnc2)n1 [Imatinib] + CC(C)C[C@H](NC(=O)[C@H](Cc1ccccc1)NC(=O)c1cnccn1)B(O)O [Bortezomib] (partner 0.002 µM)
Outline: (§1)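 Relative viability divides the nuclei count in treated wells by that in vehicle wells. Lung cancer cell lines were seeded in 1536-well plates, dosed by pin tool the next day, and fixed and stained after 5 days in one step with final 0.05% Triton X-100, 1% formaldehyde and 1 ug/ml Hoechst. Dosing was a single drug or a fixed anchor-drug dose plus five library-drug doses (not always all listed) in √10 steps, and values are medians of duplicate plates imaged at 4×.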

Imatinib + Lapatinib = compound: Cc1ccc(NC(=O)c2ccc(CN3CCN(C)CC3)cc2)cc1Nc1nccc(-c2cccnc2)n1 [Imatinib] + CS(=O)(=O)CCNCc1ccc(-c2ccc3ncnc(Nc4ccc(OCc5cccc(F)c5)c(Cl)c4)c3c2)o1 [Lapatinib] (partner 2 µM)
Outline: as §1

Imatinib + Pictilisib = compound: Cc1ccc(NC(=O)c2ccc(CN3CCN(C)CC3)cc2)cc1Nc1nccc(-c2cccnc2)n1 [Imatinib] + CS(=O)(=O)N1CCN(Cc2cc3nc(-c4cccc5[nH]ncc45)nc(N4CCOCC4)c3s2)CC1 [Pictilisib] (partner 1 µM)
Outline: as §1

Imatinib + Crizotinib = compound: Cc1ccc(NC(=O)c2ccc(CN3CCN(C)CC3)cc2)cc1Nc1nccc(-c2cccnc2)n1 [Imatinib] + C[C@@H](Oc1cc(-c2cnn(C3CCNCC3)c2)cnc1N)c1c(Cl)ccc(F)c1Cl [Crizotinib] (partner 1 µM)
Outline: as §1

Row | Cell Line | relative viability (Imatinib + Bortezomib; first compound 0.02 µM) | relative viability (Imatinib + Bortezomib; first compound 0.06325 µM) | relative viability (Imatinib + Bortezomib; first compound 0.2 µM) | relative viability (Imatinib + Bortezomib; first compound 0.6325 µM) | relative viability (Imatinib + Bortezomib; first compound 2 µM) | relative viability (Imatinib + Lapatinib; first compound 0.02 µM) | relative viability (Imatinib + Lapatinib; first compound 0.06325 µM) | relative viability (Imatinib + Lapatinib; first compound 0.2 µM) | relative viability (Imatinib + Lapatinib; first compound 0.6325 µM) | relative viability (Imatinib + Lapatinib; first compound 2 µM) | relative viability (Imatinib + Pictilisib; first compound 0.02 µM) | relative viability (Imatinib + Pictilisib; first compound 0.06325 µM) | relative viability (Imatinib + Pictilisib; first compound 0.2 µM) | relative viability (Imatinib + Pictilisib; first compound 0.6325 µM) | relative viability (Imatinib + Pictilisib; first compound 2 µM) | relative viability (Imatinib + Crizotinib; first compound 0.02 µM) | relative viability (Imatinib + Crizotinib; first compound 0.06325 µM) | relative viability (Imatinib + Crizotinib; first compound 0.2 µM) | relative viability (Imatinib + Crizotinib; first compound 0.6325 µM) | relative viability (Imatinib + Crizotinib; first compound 2 µM)
1 | LOU-NH91 | 0.557 | 0.517 | 0.51 | 0.423 | 0.479 | 0.793 | 0.775 | 0.792 | 0.765 | 0.766 | 0.51 | 0.546 | 0.49 | 0.537 | 0.498 | 0.747 | 0.778 | 0.767 | 0.677 | 0.769
2 | LU99A | 1.34 | 1.19 | 1.08 | 1.23 | 1.03 | 1.14 | 1.08 | 0.986 | 0.99 | 1.18 | 0.353 | 0.333 | 0.3 | 0.354 | 0.335 | 0.53 | 0.735 | 0.534 | 0.536 | 0.532
3 | LXF-289 | 1.06 | – | 1.13 | 0.974 | 0.955 | 0.974 | 0.999 | 0.96 | 0.905 | 0.873 | 0.929 | 0.711 | 0.934 | 0.747 | 0.804 | 0.881 | 0.826 | 0.876 | 0.814 | 0.777
4 | NCI-H23 | 1.29 | 0.95 | 1.13 | 1.03 | – | 1.2 | 0.959 | 1.11 | – | 1.13 | 0.582 | 0.547 | 0.541 | 0.446 | 0.494 | 0.573 | 0.712 | 0.584 | 0.374 | 0.398
5 | NCI-H322M | 1.16 | 1.34 | 1.26 | 1.1 | 1.1 | 0.613 | 0.61 | 0.656 | 0.534 | 0.63 | 0.516 | 0.454 | 0.561 | 0.485 | 0.565 | 0.966 | 1.1 | – | 0.836 | –
6 | NCI-H460 | 1.5 | 1.33 | 1.7 | 0.92 | – | 1.41 | 0.872 | 1.36 | 1.17 | 1.09 | 0.465 | 0.277 | 0.335 | 0.506 | 0.3 | 1.29 | 1.38 | 1.55 | 0.881 | 0.85
7 | NCI-H520 | 0.781 | 0.639 | 0.476 | 0.558 | 0.512 | 1.06 | – | 1.01 | 0.82 | 0.86 | 0.348 | 0.362 | 0.305 | 0.289 | 0.306 | 0.764 | 0.978 | 0.874 | 0.963 | 0.647
8 | NCI-H596 | 1.2 | 1.02 | – | 0.944 | – | 1.17 | 1.29 | 1.13 | – | 1.03 | 0.416 | 0.375 | 0.42 | 0.394 | 0.388 | – | 0.991 | 1.06 | 0.928 | 0.975
9 | NCI-H647 | 1.11 | 1.11 | 1.73 | 1.02 | 0.872 | – | 1.11 | 1.2 | 1.17 | 1.02 | 0.462 | 0.447 | 0.433 | 0.38 | 0.385 | 1.1 | 1.36 | 1.45 | 1.12 | 1.06
10 | NCI-H650 | 0.893 | 0.823 | 0.805 | 1.03 | 0.616 | 1.02 | 1.16 | 1 | 1.11 | 0.85 | 1.09 | 1.01 | 0.855 | 0.885 | – | 0.708 | 0.913 | 0.916 | 0.656 | 0.812
11 | NCI-H661 | 0.81 | 0.613 | 0.821 | 0.607 | 0.852 | 0.434 | 0.296 | 0.546 | 0.19 | 0.481 | 0.333 | 0.431 | 0.456 | 0.374 | 0.413 | – | 0.806 | 1.05 | – | 0.869
12 | NCI-H727 | 0.93 | 0.812 | – | 0.868 | 0.745 | 0.626 | 0.637 | 0.84 | 0.769 | 0.801 | 0.356 | 0.442 | 0.355 | 0.524 | 0.383 | – | 0.853 | 0.944 | 0.845 | 0.792
13 | NCI-H1355 | 1.26 | – | 1.31 | 1.13 | 1.18 | 1.04 | – | 1.1 | 1.02 | 0.99 | 0.432 | – | 0.434 | 0.468 | 0.536 | 1.13 | – | 1.21 | 1.03 | 1.15
14 | NCI-H1437 | 0.697 | 0.528 | 0.541 | 0.432 | 0.547 | 0.916 | 0.841 | 0.925 | 0.706 | 0.823 | 0.391 | 0.454 | 0.422 | 0.463 | 0.424 | 1.02 | 1.15 | 1.1 | 1.07 | 0.878
15 | NCI-H1563 | 0.885 | 0.789 | 0.889 | 0.809 | 0.86 | 1.01 | 0.699 | 0.98 | 0.869 | – | 0.662 | 0.537 | 0.634 | 0.605 | 0.589 | 0.823 | 0.884 | 0.863 | 0.884 | 0.825
16 | NCI-H1650 | 0.211 | 0.204 | 0.22 | 0.22 | 0.233 | 0.797 | 0.489 | 0.845 | 0.816 | 0.886 | 0.638 | 0.338 | 0.589 | 0.574 | 0.661 | 1.04 | 1.06 | 1.2 | 0.904 | 1.11
17 | NCI-H1651 | 1.03 | 0.83 | 0.964 | 0.955 | 0.893 | 1.02 | 1.06 | 0.994 | 0.692 | 0.87 | 0.759 | 0.62 | 0.698 | 0.634 | 0.569 | 0.916 | 0.775 | – | 0.855 | 0.891
18 | NCI-H1666 | 0.76 | 0.796 | 0.837 | 0.859 | 0.652 | 0.679 | 0.811 | 0.565 | 0.748 | 0.844 | 0.327 | 0.406 | 0.381 | 0.48 | 0.393 | 1.02 | 1.09 | 0.991 | 1.14 | 0.966
19 | NCI-H1734 | 1.3 | – | 1.02 | 0.938 | – | 1.26 | – | 1.3 | 1.1 | – | 0.515 | – | 0.559 | 0.428 | – | 0.674 | – | 0.891 | 0.642 | –
20 | NCI-H1755 | 1.13 | 1.09 | 1.03 | – | 0.928 | 1.14 | 0.994 | 1.06 | 0.997 | 1.02 | 0.457 | 0.348 | 0.531 | 0.495 | 0.473 | 1.08 | 1.12 | 1.06 | 0.808 | 0.794
21 | NCI-H1792 | 1.21 | 0.951 | 0.675 | 0.861 | 0.935 | 0.859 | 1.08 | 0.954 | 0.942 | 0.838 | 0.264 | 0.198 | 0.214 | 0.237 | 0.277 | 1.4 | – | 0.931 | 0.92 | 0.946
22 | NCI-H1915 | 1.04 | – | – | – | – | 0.974 | – | 1.04 | 0.952 | – | 0.962 | – | 1.01 | 0.958 | 0.871 | 0.905 | – | 1.03 | 0.885 | 0.897
23 | NCI-H1975 | 0.484 | 0.437 | 0.338 | 0.304 | 0.356 | 1.01 | 1.04 | 1.03 | 1.03 | – | 0.332 | 0.311 | 0.294 | 0.28 | 0.324 | 1.1 | 1.16 | 1.1 | 0.916 | 1.07
24 | NCI-H1993 | – | – | 0.954 | 1.11 | 1.02 | – | 0.872 | 0.774 | 0.809 | 0.698 | – | 0.861 | 0.805 | 0.997 | 0.924 | – | 0.905 | – | 0.927 | 0.815
25 | NCI-H2009 | 1.05 | 0.476 | 1.08 | 1 | 0.906 | 0.974 | 0.442 | 1.05 | 0.87 | 0.939 | 0.809 | 0.429 | 0.909 | 0.878 | 0.896 | 1.09 | 1.23 | 0.975 | 1.02 | 1.04
26 | NCI-H2085 | 1.05 | 0.902 | 1.08 | 1.13 | 1.04 | 0.754 | 0.591 | 0.733 | 0.819 | 0.694 | 0.448 | 0.462 | 0.472 | 0.594 | 0.434 | 0.826 | 0.891 | 0.903 | 0.839 | 0.841
27 | NCI-H2087 | 0.868 | 0.963 | 0.689 | 0.727 | 0.604 | 1.06 | 0.654 | 1.21 | 1.05 | – | 1.13 | 0.44 | 0.796 | – | 0.858 | 0.894 | 0.983 | 0.943 | 0.941 | 0.718
28 | NCI-H2126 | 1.12 | – | 1.19 | 1.05 | 1.12 | – | – | 0.828 | 0.684 | 0.704 | 0.507 | – | 0.484 | 0.452 | 0.475 | 1.04 | – | 1.05 | 1 | 0.984
29 | NCI-H2228 | 1.13 | 0.782 | 1.14 | 1.01 | 0.895 | 1.31 | 1.02 | 1.03 | 1.01 | 0.843 | 0.525 | 0.178 | 0.427 | 0.534 | 0.52 | 0.351 | 0.383 | 0.54 | 0.478 | 0.393
